Experimental data reported in patent publication US8987193B2, “Nisin derivatives and the use thereof” (University College Cork—National University of Ireland, Cork, priority 2008, dated 2015).
Ends that are not written are not given here.

System: C. sporogenes CBC5
Assay: Deferred antagonism assay
Assay type: cell-based, Clostridium sporogenes
Parameters: key: + = Enhanced bioactivity relative to control; − = Bioactivity equal to or less than control; NA = no activity evident
Settings: XX and XXX hinge mutant producers

Row | Substance | bioactivity relative to a nisin A-producing control
1 | NisinA PIM | −
2 | NisinA PTA | −
3 | NisinA PTL (ITSISLCTPGCKTGALMGCPTLTATCHCSIHVSK; thioether (positions not given here); not fully specified (residues 2, 5, 33, bridges); also: lantibiotic nisin A, thioether rings and dehydro residues not given here; UniProt P13068 24-57, looked up, variant N20P M21T K22L) [nisin A hinge variant PTL (i.e. N20P, M21T, K22L)] | −
4 | NisinA PMM | −
5 | NisinA PAK | −
6 | NisinA QLT (ITSISLCTPGCKTGALMGCQLTTATCHCSIHVSK; not fully specified (bridges); also: lantibiotic nisin-A: lanthionine rings and dehydrated residues, places not given here; UniProt P13068 24-57, looked up, variant N20Q M21L K22T) [nisin A hinge variant QLT (i.e. N20Q, M21L, K22T)] | −
7 | NisinA PLA (ITSISLCTPGCKTGALMGCPLATATCHCSIHVSK; not fully specified (bridges); also: lantibiotic nisin-A: lanthionine rings and dehydrated residues, places not given here; UniProt P13068 24-57, looked up, variant N20P M21L K22A) [nisin A hinge variant PLA (i.e. N20P, M21L, K22A)] | −
8 | NisinA PML | −
9 | NisinA PMQ | −
10 | NisinA PIA | −
11 | NisinA PAT (ITSISLCTPGCKTGALMGCPATTATCHCSIHVSK; not fully specified (bridges); also: lantibiotic nisin-A: lanthionine rings and dehydrated residues, places not given here; UniProt P13068 24-57, looked up, variant N20P M21A K22T) [nisin A hinge variant PAT (i.e. N20P, M21A, K22T)] | −
12 | NisinA GLA (ITSISLCTPGCKTGALMGCGLATATCHCSIHVSK; cysteine pairing not given here; also: lantibiotic nisin-A; UniProt P13068 24-57, looked up, variant N20G M21L K22A) [nisin A hinge variant GLA (i.e. N20G, M21L, K22A)] | −
13 | NisinA PMC | −
14 | NisinA PSL | −
15 | NisinA PAA | −
16 | NisinA HLT (ITSISLCTPGCKTGALMGCHLTTATCHCSIHVSK; cysteine pairing not given here; also: lantibiotic nisin-A; UniProt P13068 24-57, looked up, variant N20H M21L K22T) [nisin A hinge variant HLT (i.e. N20H, M21L, K22T)] | −
17 | NisinA PNR (ITSISLCTPGCKTGALMGCPNRTATCHCSIHVSK; not fully specified (bridges); also: lantibiotic nisin-A: lanthionine rings and dehydrated residues, places not given here; UniProt P13068 24-57, looked up, variant N20P M21N K22R) [nisin A hinge variant PNR (i.e. N20P, M21N, K22R)] | −
18 | NisinA PAL (ITSISLCTPGCKTGALMGCPALTATCHCSIHVSK; not fully specified (bridges); also: lantibiotic nisin-A: lanthionine rings and dehydrated residues, places not given here; UniProt P13068 24-57, looked up, variant N20P M21A K22L) [nisin A hinge variant PAL (i.e. N20P, M21A, K22L)] | −
19 | NisinA GVK | −
20 | NisinA SVA (ITSISLCTPGCKTGALMGCSVATATCHCSIHVSK; not fully specified (bridges); also: lantibiotic nisin-A: lanthionine rings and dehydrated residues, places not given here; UniProt P13068 24-57, looked up, variant N20S M21V K22A) [nisin A hinge variant SVA (i.e. N20S, M21V, K22A)] | −
21 | NisinA PMT | −
